Experiments:
[1] = Normal tissue damage / cutaneous photosensitivity by ear swelling after irradiation; assay type: in vivo, mice; settings: 0.88 μmol/kg; same light dose 24 h after drug injection
Experimental: In a separate group of mice, the normal tissue damage was assessed by irradiating one ear with 40 Jcm^−2 of broad spectrum white light delivered using a fibre bundle from the xenon light source. The incident power at the ear surface was 638 mWcm^−2 and light was applied for 63 s. Animal ears were irradiated with light 24 h after administration of N-Me-NC-m-THPP. The opposing ear served as a control. The response was assessed twenty-four hours after irradiation by measuring the ear thickness at three sites on the upper third of the ear using a fixed-force micrometer with a vernier-interpolated resolution of 2 μm and an accuracy of 10 μm (Neill instruments).

syngeneic colo26 tumour = settings: m-THPP dose of 1.61 μmol/kg; light at 652 nm; Berenbaum et al. 1993; cited from earlier work

SMILES | Ear Swelling (irradiated − control; μm) [1] [μm] | tumour necrosis (literature) (syngeneic colo26 tumour) [mm]
Oc1cccc(-c2c3nc(c(-c4cccc(O)c4)c4ccc([nH]4)c(-c4cccc(O)c4)c4nc(c(-c5cccc(O)c5)c5ccc2[nH]5)CC4)C=C3)c1 [m-THPC, tetra(3-hydroxyphenyl)dihydroporphyrin] | 41 | 
Oc1cccc(-c2c3nc(c(-c4cccc(O)c4)c4ccc([nH]4)c(-c4cccc(O)c4)c4nc(c(-c5cccc(O)c5)c5ccc2[nH]5)C=C4)C=C3)c1 [m-THPP] |  | 0.14
